Assay results as given in US7101878B1 (Agouron Pharmaceuticals, Inc., priority 1998, dated 2006).
Read-outs that look alike come from different tables or passages of the source. Where a SMILES comes first, the peptide text is derived from it. [ ]: non-standard residue; d: D form. The star is where a group is joined. dPhe(4-Cl) = N[C@H](Cc1ccc(Cl)cc1)C(=O)O; d2Nal = N[C@H](Cc1ccc2ccccc2c1)C(=O)O; Lys(iPr) = CC(C)NCCCC[C@H](N)C(=O)O; d3Pal = N[C@H](Cc1cccnc1)C(=O)O; Nicotinoyl = O=C(c1cccnc1)*

Tests used:
human GnRH receptor = target: T1, human GnRH receptor (Homo sapiens, UniProt P30968); test: Radioligand binding, 125I-GnRH-A displacement, membranes of HEK 293 cells with human GnRH receptor
T1 construct: expressed in transfected cells; host or cells: HEK 293 (hGnRH-R/293, from Dr. Stuart Sealfon)
T1 sequence (P30968 1-328): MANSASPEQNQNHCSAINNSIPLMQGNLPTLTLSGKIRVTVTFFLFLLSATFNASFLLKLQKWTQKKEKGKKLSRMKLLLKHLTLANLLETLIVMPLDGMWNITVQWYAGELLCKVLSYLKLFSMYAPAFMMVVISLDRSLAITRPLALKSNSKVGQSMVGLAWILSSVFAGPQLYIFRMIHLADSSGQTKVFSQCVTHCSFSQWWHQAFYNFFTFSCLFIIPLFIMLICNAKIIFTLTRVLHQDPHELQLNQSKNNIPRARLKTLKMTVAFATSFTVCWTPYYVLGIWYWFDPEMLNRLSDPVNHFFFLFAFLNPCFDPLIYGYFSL
How it was run: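 After filtration and PBS washes, bound radioactivity was counted by scintillation and IC50 derived. Identical conditions applied for non-human receptors.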

mouse GnRH receptor = target: T2, mouse GnRH receptor (Mus musculus, UniProt Q01776); test: Radioligand binding, 125I-GnRH-A, 293 cells expressing mouse GnRH receptors
T2 construct: expressed in transfected cells; host or cells: 293 cells
T2 sequence (Q01776 1-327): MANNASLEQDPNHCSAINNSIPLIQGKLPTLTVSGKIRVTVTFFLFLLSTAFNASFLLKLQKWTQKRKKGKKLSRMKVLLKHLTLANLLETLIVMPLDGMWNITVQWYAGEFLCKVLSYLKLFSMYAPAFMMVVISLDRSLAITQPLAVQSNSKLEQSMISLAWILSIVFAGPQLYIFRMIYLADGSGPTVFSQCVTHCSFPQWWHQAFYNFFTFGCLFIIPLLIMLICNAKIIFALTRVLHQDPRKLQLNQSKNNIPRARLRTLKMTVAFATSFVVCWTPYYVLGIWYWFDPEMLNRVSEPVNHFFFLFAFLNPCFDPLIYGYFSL
How it was run: (§1)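 Bound label captured on 0.1% polyethyleneimine-treated GF/C filters, washed three times with PBS, counted. IC50 derived; identical set-up for every species.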

[1] = Pharmacokinetic studies / bioavailability in rats; type: in vivo, rat; conditions: for Cmax / Tmax: po, 20 mg/kg; for Cmax / Tmax / Fp.o.: p.o. 20 mg/kg
5-HT7 = 5-HT7 (Homo sapiens, UniProt P34969); test: Selectivity: 5-HT7
Chain of 5-HT7 (P34969 whole entry, species assumed): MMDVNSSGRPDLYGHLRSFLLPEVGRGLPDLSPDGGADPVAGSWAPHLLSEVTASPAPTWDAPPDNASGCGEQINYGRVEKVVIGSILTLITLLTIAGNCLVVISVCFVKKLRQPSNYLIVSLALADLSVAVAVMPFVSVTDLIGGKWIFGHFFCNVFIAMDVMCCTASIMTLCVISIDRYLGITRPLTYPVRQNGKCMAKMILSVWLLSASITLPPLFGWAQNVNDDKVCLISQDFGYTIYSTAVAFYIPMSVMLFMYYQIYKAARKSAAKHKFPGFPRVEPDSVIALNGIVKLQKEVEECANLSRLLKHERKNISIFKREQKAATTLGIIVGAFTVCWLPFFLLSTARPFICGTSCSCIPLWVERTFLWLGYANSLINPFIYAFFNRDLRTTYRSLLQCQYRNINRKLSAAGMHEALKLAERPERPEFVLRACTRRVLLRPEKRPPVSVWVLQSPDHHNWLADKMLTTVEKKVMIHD

NPY Y1 = target: T3, NPY Y1 (Homo sapiens, UniProt P25929); test: Selectivity: NPY Y1
T3 sequence (P25929 1-384): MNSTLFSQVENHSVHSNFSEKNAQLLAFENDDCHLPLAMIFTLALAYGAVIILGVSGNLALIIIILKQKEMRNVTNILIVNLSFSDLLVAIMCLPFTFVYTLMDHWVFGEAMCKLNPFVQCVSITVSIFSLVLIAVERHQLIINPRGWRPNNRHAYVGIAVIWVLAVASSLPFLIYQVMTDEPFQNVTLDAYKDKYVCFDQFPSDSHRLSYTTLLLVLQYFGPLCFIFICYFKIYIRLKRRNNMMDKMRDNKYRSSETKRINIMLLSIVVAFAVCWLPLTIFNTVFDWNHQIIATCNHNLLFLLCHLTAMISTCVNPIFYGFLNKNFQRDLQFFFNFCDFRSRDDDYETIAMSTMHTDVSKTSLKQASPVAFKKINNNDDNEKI

D2 Dopamine = D2 Dopamine (Homo sapiens, UniProt P14416); test: Selectivity: D2 Dopamine
Chain of D2 Dopamine (P14416 whole entry): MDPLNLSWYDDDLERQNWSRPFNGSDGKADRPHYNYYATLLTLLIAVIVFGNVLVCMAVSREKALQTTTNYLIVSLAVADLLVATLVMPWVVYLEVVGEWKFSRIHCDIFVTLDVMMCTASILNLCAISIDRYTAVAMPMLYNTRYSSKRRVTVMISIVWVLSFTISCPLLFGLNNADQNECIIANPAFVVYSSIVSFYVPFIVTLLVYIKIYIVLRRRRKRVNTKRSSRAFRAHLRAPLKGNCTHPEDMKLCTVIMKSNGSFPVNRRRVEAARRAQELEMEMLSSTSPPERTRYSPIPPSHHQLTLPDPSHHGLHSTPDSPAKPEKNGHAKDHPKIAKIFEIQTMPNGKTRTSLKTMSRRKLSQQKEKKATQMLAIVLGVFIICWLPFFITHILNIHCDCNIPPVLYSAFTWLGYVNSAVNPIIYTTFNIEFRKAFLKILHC

rat GnRH receptor = target: T4, rat GnRH receptor (Rattus norvegicus, UniProt P30969); test: Radioligand binding, 125I-GnRH-A, rat pituitary membranes; design: membranes were prepared from rat pituitary; from tissue; host or cells: rat pituitary
T4 sequence (P30969 1-327): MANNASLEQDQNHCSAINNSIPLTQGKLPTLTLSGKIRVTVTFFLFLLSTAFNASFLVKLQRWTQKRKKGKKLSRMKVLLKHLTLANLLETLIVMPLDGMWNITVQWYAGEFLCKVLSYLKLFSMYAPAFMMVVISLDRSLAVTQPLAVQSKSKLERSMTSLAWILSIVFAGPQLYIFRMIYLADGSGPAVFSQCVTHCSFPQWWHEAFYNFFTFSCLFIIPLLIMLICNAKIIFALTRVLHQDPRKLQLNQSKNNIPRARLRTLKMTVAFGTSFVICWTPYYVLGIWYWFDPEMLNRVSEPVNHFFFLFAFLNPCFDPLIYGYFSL
How it was run: as §1

[2] = Metabolism rate, pmol/min/mg at 1 μM, human; type: in vitro ADME; conditions: 1 μM compound
[3] = means ± SE of at least three experiments performed in duplicate, read-out: Human IC50
[4] = second value marked * (mostly in parentheses), asterisk not explained, read-out: hGnRH IC50, value marked *
[5] = means ± SE of at least three experiments performed in duplicate, read-out: Mouse IC50
[6] = male, rat, plasma, iv, 10 mg/kg, rat male
[7] = means ± SE of at least three experiments performed in duplicate, read-out: Rat IC50
[8] = male, rat, plasma, rat male, vehicle per footnote (DMSO/cremophor/saline)
[9] = female, rat, plasma, rat female, 10 mg/ml solution in 10% DMSO 10% cremophor 80% saline

Compound	IC50 (human GnRH receptor; [3])	IC50 (human GnRH receptor; read-out: hGnRH IC50)	IC50 (human GnRH receptor; [4])	IC50 (mouse GnRH receptor; [5])	IC50 (mouse GnRH receptor; read-out: mGnRH IC50)	half-life [1, 6]	Ki (5-HT7)	IC50 (NPY Y1)	Ki (D2 Dopamine)	IC50 (rat GnRH receptor; [7])	IC50 (rat GnRH receptor; read-out: rGnRH IC50)	other results
Cc1cc2c(cc1Cc1ccc(C(=O)NC[C@H]3CC[C@H](C(=O)O)CC3)o1)C(C)(C)CCC2(C)C [Compound 12]	0.23 ± 0.037 µM	0.23 µM	0.21 µM	7.13 ± 1.35 µM	7.13 µM	0.6 h	> 4.5 µM	> 10 µM	1.4 µM	3.08 ± 0.63 µM	3.08 µM	
CC(=O)N[C@H](Cc1ccc2ccccc2c1)C(=O)N[C@H](Cc1ccc(Cl)cc1)C(=O)N[C@H](Cc1cccnc1)C(=O)N[C@@H](CO)C(=O)N[C@@H](CCCCNC(=O)c1cccnc1)C(=O)N[C@H](CCCCNC(=O)c1cccnc1)C(=O)N[C@@H](CC(C)C)C(=O)N[C@@H](CCCCNC(C)C)C(=O)N1CCC[C@H]1C(=O)N[C@H](C)C(N)=O [Antide, reference compound] (Ac-[d2Nal][dPhe(4-Cl)][d3Pal]SK(Nicotinoyl)[dK](Nicotinoyl)L[Lys(iPr)]P[dA]-NH2)	0.00067 ± 9e-05 µM			0.00025 ± 5e-05 µM						0.00019 ± 4e-05 µM		
COc1cccc(OC)c1NC(=O)c1ccc(Cc2cc3c(cc2C)C(C)(C)CCC3(C)C)o1 [Compound 20]	0.008 ± 0.0009 µM	0.008 µM			0.02 µM	0.867 h	> 4.4 µM	> 10 µM	> 3.2 µM		0.005 µM	Cmax [1, 8]: 200 nM; Tmax [1, 8]: 1 h; Ki (NPY Y1): > 10 µM
Cc1cc2c(cc1Cc1ccc(C(=O)NCc3cccc(CNc4nccc(NCC5CCCO5)n4)c3)o1)C(C)(C)CCC2(C)C (stereo not drawn) [Compound 70]		0.05 µM			0.006 µM	0.967 h					0.006 µM	Human pmol/min/mg 1 μM [2]: 311 pmol/min/mg
Cc1cnc(CNC(=O)c2ccc(Cc3cc4c(cc3C)C(C)(C)CCC4(C)C)o2)cn1 [Compound 13]	0.11 ± 0.02 µM	0.11 µM	0.04 µM	0.12 ± 0.02 µM	0.12 µM	1.5 h	> 4.4 µM	> 10 µM	> 3.2 µM	0.06 ± 0.008 µM	0.06 µM	
Cc1cc2c(cc1Cc1ccc(C(=O)NC[C@H]3CC[C@H](CNC(=N)N)CC3)o1)C(C)(C)CCC2(C)C [Compound 10]	0.13 ± 0.024 µM	0.13 µM	0.02 µM	1.4 ± 0.44 µM	1.4 µM		1.27 µM	9.7 µM		0.39 ± 0.01 µM	0.39 µM	
Cc1cc2c(cc1Cc1ccc(C(=O)NCc3cccc(CNc4ccnc(NC[C@@H]5CCCO5)n4)c3)o1)C(C)(C)CCC2(C)C [Compound 136]					0.0086 µM	2 h	2.4 µM		0.16 µM		0.0047 µM	Cmax [1, 9]: 240 nM; Tmax [1, 9]: 2.5 h; half-life ([1]; female, rat, plasma, rat female): 3.2 h; Tmax ([1]; male, rat, plasma, rat male, 40 mg/ml in PEG400): 4 h; Tmax ([1]; male, rat, plasma, rat male, in PG): 3.5 h; Cmax [1, 8]: 240 nM; Tmax [1, 8]: 2 h; bioavailability ([1]; plasma, other: portal vein infusion, rat, portal vein infusion 20 mg/kg, read-out: Portal vein infusion: bioavailable): 36%; Fp.o. ([1]; rat female, 10 mg/ml solution in 10% DMSO 10% cremophor 80% saline): 8% (20 mg/kg)^1; Fp.o. ([1]; rat male, vehicle per footnote (DMSO/cremophor/saline)): 6% (20 mg/kg)^4; Human pmol/min/mg 1 μM [2]: 191 pmol/min/mg
